From patent US20110076293A1, “TRIPTOLIDE DERIVATIVES FOR MODULATION OF APOPTOSIS AND IMMUNOSUPPRESSION” (priority 2002, published 2011)
Read-outs that look alike come from different tables or passages of the source.

Legend:
[1] = tested on: IL-2 production in Jurkat human T lymphocyte cells; assay: IL-2 production assay for activity of compounds incubated with human serum; conditions: for IC50: Homo sapiens, Jurkat, 48 h, IL-2 production in Jurkat cells after incubation with pooled human serum for 48 hours at 37° C.; for Conversion (%): percent of the IC50 value produced by triptolide (PG490) in the same experiment, human serum 48 hours; for bioactivity in IL-2 inhibition assays (in words): FIGS. 4-5
Experimental: Several compounds of formula I were analyzed for their capacity to inhibit IL-2 production in Jurkat human T lymphocyte cells, after incubation with pooled human serum for 48 hours at 37° C. (see Example 20). An ester prodrug, triptolide-14-succinate, designated PG490-88, was included for comparison.
The IC50 values (column 1) are calculated directly from the data in each experiment. The % conversion values (column 2) are calculated as the percent of the IC50 value produced by triptolide, designated PG490, incubated in the same plasma (i.e. in the same experiment).
A. IL-2 production assay for activity of compounds incubated with human serum. Test samples were diluted to 1 mM in complete tissue culture medium. […] Cells from an exponentially expanding culture of the Jurkat human T lymphocyte cell line (#TIB-152 obtained from American Type Culture Collection, Manassas, Va.) were harvested, washed once by centrifugation and dilution in complete tissue culture medium, and diluted to a concentration of 2×10^6 cells/ml. A volume of 50 μl of Jurkat cells (1×10^5 cells) was added to wells containing 100 μl of the diluted compounds, 50 μl of PMA (10 ng/ml) was added to each well, and the plates were incubated at 37° C. in a 5% CO2 incubator. After 24 hours, the plates were centrifuged to pellet the cells, 150 μl of supernatant was removed from each well, and the samples were stored at −20° C. The stored supernatants were analyzed for human IL-2 concentration using the Luminex 100 (Luminex Corporation, Austin, Tex.), Luminex microspheres coupled with anti-IL-2 capture antibody, and fluorochrome-coupled anti-IL-2 detection antibody. The data were expressed as ng/ml of IL-2.
(§1) B. Comparison of bioactivities after incubation of compounds in human serum. The data were plotted as the concentration of compound incubated in serum versus IL-2 concentration. The concentration of compound inducing a 50% decrease in the IL-2 concentration (IC50) was calculated from these dose response curves. […] This percentage conversion was used to compare the bioactivity of various compounds after incubation in human serum.

[2] = tested on: Jurkat human T lymphocyte cell line; assay: Apoptosis assay (Annexin V) of compounds incubated with human serum; conditions: for EC50: Homo sapiens, Jurkat
Experimental: Compounds of formula I, as shown in Table 1 above and in the Examples, were assayed for their capacity to induce apoptosis in cells from the Jurkat human T lymphocyte cell line, after incubation with pooled human serum for varying periods of time at 37° C. (see Example 19). An ester prodrug, triptolide-14-succinate, designated PG490-88, was included for comparison. The extent of conversion to triptolide after such incubation was also independently determined by HPLC analysis.
The ED50 values (column 3) are calculated directly from the data in each experiment, and the % conversion values (column 4) are calculated as percent of the ED50 value produced by triptolide, designated PG490, incubated in the same plasma (i.e. in the same experiment).
A. Incubation of compounds with human serum. Pooled human serum was stored in aliquots at −80° C. Test compounds were added at 20 mM to thawed human serum in 1.5 ml microfuge tubes and incubated at 37° C. in a water bath for varying periods of time. The test samples were placed on ice until dilution for the bioassay. Controls consisted of the compounds incubated in complete tissue culture medium (RPMI 1640 medium plus 5% heat-inactivated fetal calf serum, 1% HEPES, 1% pen/strep, 1% glutamine) rather than human serum.
B. Apoptosis assay of compounds incubated with human serum. Test samples were diluted to 1 mM in complete tissue culture medium. Aliquots were placed in microculture plates and serial dilutions were prepared so that the final concentration would encompass the range of 1 to 10,000 nM with half-log increments. Cells from an exponentially expanding culture of the Jurkat human T lymphocyte cell line (#TIB-152 obtained from American Type Culture Collection, Manassas, Va.) were harvested, washed once by centrifugation and dilution in complete tissue culture medium, and diluted to a concentration of 1×10^6 cells/ml. A volume of 100 μl of Jurkat cells (1×10^5 cells) was added to wells containing 100 μl of the diluted compounds, and the plates were incubated at 37° C. in a 5% CO2 incubator. After 24 hours, the plates were centrifuged to pellet the cells, and the cells were washed twice with 2% heat-inactivated fetal calf serum in PBS. To each well, 500 ul of binding buffer was added according to the Annexin V assay procedure (BioVision, Inc., Mountain View, Calif.). Next, 5 μl of the fluorescein isothiocyanate (FITC) conjugate of Annexin V (BioVision, Inc.) was added to each well, followed by 5 minutes of incubation in the dark. In some assays, propidium iodide (BioVision, Inc.) was added at this stage to check for necrotic cells. The contents of the wells were individually transferred into test tubes, and apoptosis was analyzed using a FACSCalibur flow cytometer (BD Immunocytometry Systems, San Jose, Calif.). Cells positive for Annexin V binding were considered to be apoptotic, and the data were calculated as percent apoptotic cells.
as §1, with “C.” for “B.”, “percent apoptotic cells.” for “IL-2 concentration.”, “inducing” for “inducing a”, “apoptosis (ED50)” for “decrease in the IL-2 concentration (IC50)”

[3] = 48 h, read-out: ED50 (nM) in apoptosis assay after incubation with serum, incubation time in human serum 48 hours, 37° C.
[4] = incubation time in human serum 48 hours

CC(C)[C@]12O[C@H]1[C@@H]1O[C@]13[C@]1(O[C@H]1C[C@H]1C4=C(CC[C@@]13C)C(=O)OC4)[C@@H]2OC(=O)OC(C)(C)C [PG695, Triptolide 14-tert-Butyl Carbonate]
IC50 [1]: 100 nM
Conversion (%) [1]: 2%
EC50 [2, 3]: 59 nM
Conversion, as relative ED50 compared to triptolide (%) [2, 4]: 100%

CC(C)[C@]12O[C@H]1[C@@H]1O[C@]13[C@]1(O[C@H]1C[C@H]1C4=C(CC[C@@]13C)C(=O)OC4)[C@@H]2OC(=O)NCCN(C)C [PG688, Triptolide 14-Dimethylaminoethyl Carbamate]
bioactivity in IL-2 inhibition assays (in words) [1]: some level of bioactivity
IL-2 pg/mL at given concentration (nM) ([1]; Table 7, Jurkat cells (48 hrs), 0.001 nM): 883.9 pg/mL
IL-2 pg/mL at given concentration (nM) ([1]; Table 7, Jurkat cells (48 hrs), 0.01 nM): 754.1 pg/mL
IL-2 pg/mL at given concentration (nM) ([1]; Table 7, Jurkat cells (48 hrs), 0.1 nM): 810.4 pg/mL
IL-2 pg/mL at given concentration (nM) ([1]; Table 7, Jurkat cells (48 hrs), 1 nM): 900.4 pg/mL
IL-2 pg/mL at given concentration (nM) ([1]; Table 7, Jurkat cells (48 hrs), 10 nM): 796.3 pg/mL
IL-2 pg/mL at given concentration (nM) ([1]; Table 7, Jurkat cells (48 hrs), 100 nM): 873.3 pg/mL
IL-2 pg/mL at given concentration (nM) ([1]; Table 7, Jurkat cells (48 hrs), 1000 nM): 759.9 pg/mL
IL-2 pg/mL at given concentration (nM) ([1]; Table 7, Jurkat cells (48 hrs), 10000 nM): 459.8 pg/mL
conversion in human serum (in words) [2]: less readily converted
% apoptotic cells at given concentration (nM) ([2]; Table 5, human serum (48 hrs), 1 nM): 9.2%
% apoptotic cells at given concentration (nM) ([2]; Table 5, human serum (48 hrs), 3 nM): 9.8%
% apoptotic cells at given concentration (nM) ([2]; Table 5, human serum (48 hrs), 10 nM): 9.4%
% apoptotic cells at given concentration (nM) ([2]; Table 5, human serum (48 hrs), 30 nM): 9.5%
% apoptotic cells at given concentration (nM) ([2]; Table 5, human serum (48 hrs), 100 nM): 9.4%
% apoptotic cells at given concentration (nM) ([2]; Table 5, human serum (48 hrs), 300 nM): 8.7%
% apoptotic cells at given concentration (nM) ([2]; Table 5, human serum (48 hrs), 1000 nM): 8.6%
% apoptotic cells at given concentration (nM) ([2]; Table 5, human serum (48 hrs), 3000 nM): 8.2%
% apoptotic cells at given concentration (nM) ([2]; Table 5, medium, 1 nM): 13.0%
% apoptotic cells at given concentration (nM) ([2]; Table 5, medium, 3 nM): 14.0%
% apoptotic cells at given concentration (nM) ([2]; Table 5, medium, 10 nM): 12.1%
% apoptotic cells at given concentration (nM) ([2]; Table 5, medium, 30 nM): 10.9%
% apoptotic cells at given concentration (nM) ([2]; Table 5, medium, 100 nM): 11.2%
% apoptotic cells at given concentration (nM) ([2]; Table 5, medium, 300 nM): 11.3%
% apoptotic cells at given concentration (nM) ([2]; Table 5, medium, 1000 nM): 12.1%
% apoptotic cells at given concentration (nM) ([2]; Table 5, medium, 3000 nM): 10.9%

CC(C)[C@]12O[C@H]1[C@@H]1O[C@]13[C@]1(O[C@H]1C[C@H]1C4=C(CC[C@@]13C)C(=O)OC4)[C@@H]2OC(=O)O[C@H](C)C(=O)OC(C)(C)C [PG681, Triptolide 14-(R)-α-Methyl-tert-butoxycarbonylmethyl Carbonate]
IC50 [1]: 3 nM
Conversion (%) [1]: 55%
EC50 ([2]; 1 h, read-out: ED50 (nM) in apoptosis assay after incubation with serum, incubation time in human serum 1 hour, 37° C.): 684 nM
EC50 [2, 3]: 139 nM
Conversion, as relative ED50 compared to triptolide (%) ([2]; incubation time in human serum 1 hour): 7%
Conversion, as relative ED50 compared to triptolide (%) [2, 4]: 40%

CC(C)[C@]12O[C@H]1[C@@H]1O[C@]13[C@]1(O[C@H]1C[C@H]1C4=C(CC[C@@]13C)C(=O)OC4)[C@@H]2OC(=O)N1CCN(C)CC1 [PG672, N-methylpiperazinecarbonyl (carbamate)]
bioactivity in IL-2 inhibition assays (in words) [1]: some level of bioactivity
IL-2 pg/mL at given concentration (nM) ([1]; Table 8, Jurkat cells, 0.0001 nM): 103.3 pg/mL
IL-2 pg/mL at given concentration (nM) ([1]; Table 8, Jurkat cells, 0.001 nM): 90.8 pg/mL
IL-2 pg/mL at given concentration (nM) ([1]; Table 8, Jurkat cells, 0.01 nM): 99.1 pg/mL
IL-2 pg/mL at given concentration (nM) ([1]; Table 8, Jurkat cells, 0.1 nM): 117.1 pg/mL
IL-2 pg/mL at given concentration (nM) ([1]; Table 8, Jurkat cells, 1 nM): 91.4 pg/mL
IL-2 pg/mL at given concentration (nM) ([1]; Table 8, Jurkat cells, 10 nM): 99.1 pg/mL
IL-2 pg/mL at given concentration (nM) ([1]; Table 8, Jurkat cells, 100 nM): 64.6 pg/mL
IL-2 pg/mL at given concentration (nM) ([1]; Table 8, Jurkat cells, 1000 nM): 26.8 pg/mL
IL-2 pg/mL at given concentration (nM) ([1]; Table 8, Jurkat cells, 10000 nM): 8.7 pg/mL
conversion in human serum (in words) [2]: less readily converted
% apoptotic cells at given concentration (nM) ([2]; Table 4, medium, 10000 nM): 48.6%
% apoptotic cells at given concentration (nM) ([2]; Table 4, serum, 0 hr, 10000 nM): 47.6%
% apoptotic cells at given concentration (nM) ([2]; Table 4, serum, 48 hr, 0.03 nM): 42.7%
% apoptotic cells at given concentration (nM) ([2]; Table 4, serum, 48 hr, 0.1 nM): 45.2%
% apoptotic cells at given concentration (nM) ([2]; Table 4, serum, 48 hr, 0.3 nM): 45.4%
% apoptotic cells at given concentration (nM) ([2]; Table 4, serum, 48 hr, 1 nM): 45.9%
% apoptotic cells at given concentration (nM) ([2]; Table 4, serum, 48 hr, 3 nM): 45.3%
% apoptotic cells at given concentration (nM) ([2]; Table 4, serum, 48 hr, 10 nM): 46.0%
% apoptotic cells at given concentration (nM) ([2]; Table 4, serum, 48 hr, 30 nM): 46.8%
% apoptotic cells at given concentration (nM) ([2]; Table 4, serum, 48 hr, 100 nM): 46.6%
% apoptotic cells at given concentration (nM) ([2]; Table 4, serum, 48 hr, 300 nM): 42.3%
% apoptotic cells at given concentration (nM) ([2]; Table 4, serum, 48 hr, 1000 nM): 43.7%
% apoptotic cells at given concentration (nM) ([2]; Table 4, serum, 48 hr, 3000 nM): 44.9%
% apoptotic cells at given concentration (nM) ([2]; Table 4, serum, 48 hr, 10000 nM): 63.2%
apoptotic activity (in words) ([2]; after 48 hr. incubation in human serum): activity at high concentrations
